A word on the IC50: it is the concentration needed to halve the response being measured.

For this experiment, the target named is human recombinant LRRK2 protein (Homo sapiens (Human), UniProt Q5S007). Put plainly: LRRK2 Kinase Activity Assay (ADP-Glo). As to conditions: LRRK2 wt; LRRKtide peptide and ATP substrates; 1h-incubation at 37° C. It counts as biochemical. Put shortly: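 Recombinant human LRRK2 acted on LRRKtide peptide and ATP for 1 h at 37 °C. ADP formed was detected by ADP-Glo luminescence (ATP depletion, then ADP-to-ATP conversion and luciferase). IC50s came from curve fits over 10 concentrations (N=2).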
Chain of human recombinant LRRK2 protein (Q5S007 whole entry): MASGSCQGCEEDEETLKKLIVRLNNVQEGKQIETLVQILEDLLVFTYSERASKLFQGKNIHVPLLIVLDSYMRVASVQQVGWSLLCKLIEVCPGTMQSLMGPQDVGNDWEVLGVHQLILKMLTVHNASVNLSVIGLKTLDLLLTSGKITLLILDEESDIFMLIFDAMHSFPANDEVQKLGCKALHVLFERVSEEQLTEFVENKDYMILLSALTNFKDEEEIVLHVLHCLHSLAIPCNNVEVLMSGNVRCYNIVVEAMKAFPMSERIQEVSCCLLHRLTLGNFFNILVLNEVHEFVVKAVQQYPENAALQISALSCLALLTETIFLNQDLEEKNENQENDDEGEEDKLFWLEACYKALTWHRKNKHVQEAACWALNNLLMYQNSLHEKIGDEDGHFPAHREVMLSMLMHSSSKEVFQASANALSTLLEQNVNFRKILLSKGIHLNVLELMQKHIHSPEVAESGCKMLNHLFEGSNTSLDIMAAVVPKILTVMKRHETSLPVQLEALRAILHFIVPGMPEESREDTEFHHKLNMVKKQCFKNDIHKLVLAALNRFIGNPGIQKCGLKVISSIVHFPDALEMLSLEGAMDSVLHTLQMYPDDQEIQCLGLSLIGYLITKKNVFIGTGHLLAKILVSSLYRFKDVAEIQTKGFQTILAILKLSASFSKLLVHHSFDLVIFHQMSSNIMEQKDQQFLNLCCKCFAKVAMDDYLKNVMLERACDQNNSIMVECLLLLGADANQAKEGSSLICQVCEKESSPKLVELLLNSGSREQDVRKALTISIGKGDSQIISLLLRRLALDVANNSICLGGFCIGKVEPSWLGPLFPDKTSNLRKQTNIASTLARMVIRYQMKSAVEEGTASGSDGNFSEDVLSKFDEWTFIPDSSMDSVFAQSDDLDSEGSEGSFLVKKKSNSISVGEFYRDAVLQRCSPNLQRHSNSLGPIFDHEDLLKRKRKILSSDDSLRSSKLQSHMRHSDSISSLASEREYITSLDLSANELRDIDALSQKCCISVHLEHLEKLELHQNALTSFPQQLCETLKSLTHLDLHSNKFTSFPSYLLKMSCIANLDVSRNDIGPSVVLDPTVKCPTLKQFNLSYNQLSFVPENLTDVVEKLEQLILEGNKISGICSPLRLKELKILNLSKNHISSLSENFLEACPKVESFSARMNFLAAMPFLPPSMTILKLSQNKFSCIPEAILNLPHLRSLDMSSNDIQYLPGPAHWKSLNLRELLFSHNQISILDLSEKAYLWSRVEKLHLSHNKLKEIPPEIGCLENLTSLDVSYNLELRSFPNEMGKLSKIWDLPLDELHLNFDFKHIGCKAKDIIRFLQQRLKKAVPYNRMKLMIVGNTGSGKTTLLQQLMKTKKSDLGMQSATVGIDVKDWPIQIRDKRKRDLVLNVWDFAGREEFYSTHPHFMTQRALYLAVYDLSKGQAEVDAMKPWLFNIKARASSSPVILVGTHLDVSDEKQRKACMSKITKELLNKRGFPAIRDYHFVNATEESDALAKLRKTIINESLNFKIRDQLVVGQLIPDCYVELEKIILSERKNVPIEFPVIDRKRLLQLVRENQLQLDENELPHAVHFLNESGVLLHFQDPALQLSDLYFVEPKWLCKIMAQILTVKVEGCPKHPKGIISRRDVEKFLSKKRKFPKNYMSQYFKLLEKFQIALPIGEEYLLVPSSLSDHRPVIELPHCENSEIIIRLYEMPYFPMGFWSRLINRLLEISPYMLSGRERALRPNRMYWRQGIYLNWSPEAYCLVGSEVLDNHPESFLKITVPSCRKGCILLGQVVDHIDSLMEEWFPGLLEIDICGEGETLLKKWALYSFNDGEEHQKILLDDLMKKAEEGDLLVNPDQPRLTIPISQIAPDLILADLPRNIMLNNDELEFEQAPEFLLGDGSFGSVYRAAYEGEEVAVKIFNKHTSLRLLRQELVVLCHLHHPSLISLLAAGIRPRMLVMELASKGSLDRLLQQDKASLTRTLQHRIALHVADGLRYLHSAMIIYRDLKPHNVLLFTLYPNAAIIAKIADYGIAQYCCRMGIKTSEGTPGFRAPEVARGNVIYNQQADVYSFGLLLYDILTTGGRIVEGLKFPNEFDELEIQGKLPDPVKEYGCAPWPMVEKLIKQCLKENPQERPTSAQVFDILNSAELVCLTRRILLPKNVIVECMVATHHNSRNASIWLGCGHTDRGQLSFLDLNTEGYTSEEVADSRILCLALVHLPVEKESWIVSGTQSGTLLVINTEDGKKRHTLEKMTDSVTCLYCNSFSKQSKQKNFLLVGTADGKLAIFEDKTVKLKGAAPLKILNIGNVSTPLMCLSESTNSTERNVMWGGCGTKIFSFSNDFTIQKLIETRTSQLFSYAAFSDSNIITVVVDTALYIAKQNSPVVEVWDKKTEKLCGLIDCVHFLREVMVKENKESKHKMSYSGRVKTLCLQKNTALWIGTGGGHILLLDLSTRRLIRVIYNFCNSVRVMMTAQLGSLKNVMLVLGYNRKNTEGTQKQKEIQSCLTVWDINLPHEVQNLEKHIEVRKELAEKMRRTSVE
A general note: ADP-Glo turns the ADP formed in a reaction into a luminescent signal.
As for `O=C1NCCCOc2ccc3[nH]nc(c3c2)-c2cc(cc(N3CCOCC3=O)c2)CO1` [Example 73, 4-(3-oxomorpholin-4-yl)-8,14-dioxa-10,19,20-triazatetracyclo[13.5.2. 1^2,6.0^18,21]tricosa-1(20),2(23),3,5,15(22),16,18(21)-heptaen-9-one], the half-inhibitory concentration (IC50) is less than 0.01 µM.
Then `O=C1NCCCOc2ccc3[nH]nc(c3c2)-c2cc(cc(N3CCCC3=O)c2)CO1` [Example 74, 4-(2-oxopyrrolidin-1-yl)-8,14-dioxa-10,19,20-triazatetracyclo[13.5.2. 1^2,6.0^18,21]tricosa-1(20),2(23),3,5,15(22),16,18(21)-heptaen-9-one], with less than 0.01 µM; and `O=C1NCCCOc2ccc3[nH]nc(c3c2)-c2ccc(N3CCCC3=O)c(c2)CO1` [Example 75, 5-(2-oxopyrrolidin-1-yl)-8,14-dioxa-10,19,20-triazatetracyclo[13.5.2. 1^2,6.0^18,21]tricosa-1(20),2(23),3,5,15(22),16,18(21)-heptaen-9-one], with less than 0.01 µM; and `CC1CCCN1c1cc2cc(c1)-c1n[nH]c3ccc(cc13)OCCCNC(=O)OC2` (stereo not drawn) [Example 76, 4-(2-methylpyrrolidin-1-yl)-8,14-dioxa-10,19,20-triazatetracyclo[13.5.2.1^2,6.0^18,21]tricosa-1(20),2(23),3,5,15(22),16,18(21)-heptaen-9-one], with less than 0.01 µM.
As for `N#CCc1cc2cc(c1)-c1n[nH]c3ccc(cc13)OCCCNC(=O)OC2` [Example 77, 2-{9-oxo-8,14-dioxa-10,19,20-triazatetracyclo[13.5.2.1^2,6.0^18,21]tricosa-1(20),2(23),3,5,15(22),16,18(21)-heptaen-4-yl}acetonitrile], the IC50 is less than 0.01 µM.
Then `C#Cc1cc2cc(c1)-c1n[nH]c3ccc(cc13)OCCCNC(=O)OC2` [Example 80, 4-ethynyl-8,14-dioxa-10,19,20-triazatetracyclo[13.5.2.1^2,6.0^18,21]tricosa-1(20),2(23),3,5,15(22),16,18(21)-heptaen-9-one], with less than 0.01 µM; and `O=C1NCCCOc2ccc3[nH]nc(c3c2)-c2cc(cc(N3CCNCC3)c2)CO1` [Example 81, 4-(piperazin-1-yl)-8,14-dioxa-10,19,20-triazatetracyclo[13.5.2.1^2,6.0^18,21]tricosa-1(20),2(23),3,5,15(22),16,18(21)-heptaen-9-one], with less than 0.01 µM; and `O=C1NCCCOc2ccc3[nH]nc(c3c2)-c2cc(cc(C3=CCNCC3)c2)CO1` [Example 82, 4-(1,2,3,6-tetrahydropyridin-4-yl)-8,14-dioxa-10,19,20-triazatetracyclo[13.5.2.1^2,6.0^18,21]tricosa-1(20),2(23),3,5,15(22),16,18(21)-heptaen-9-one], with less than 0.01 µM.
With `COCC1CCOc2ccc3[nH]nc(c3c2)-c2cccc(c2)COC(=O)N1` (stereo not drawn) [Example 83, 11-(methoxymethyl)-8,14-dioxa-10,19,20-triazatetracyclo[13.5.2.1^2,6.0^18,21]tricosa-1(20),2(23),3,5,15(22),16,18(21)-heptaen-9-one], the IC50 was less than 0.01 µM.
To `O=C1NCCCOc2ccc3[nH]nc(c3c2)-c2ccn(n2)CCO1` [Example 84, 8,14-dioxa-5,10,19,20,23-pentaazatetracyclo[13.5.2.1^2,5.0^18,21]tricosa-1(20),2(23),3,15(22),16,18(21)-hexaen-9-one] belongs 0.01 to 0.1 µM; to `CC1CCOc2ccc3[nH]nc(c3c2)-c2cnn(c2)CCOC(=O)N1` (stereo not drawn) [Example 85, 11-methyl-8,14-dioxa-4,5,10,19,20-pentaazatetracyclo[13.5.2.1^2,5.0^18,21]tricosa-1(20),2(23),3,15(22),16,18(21)-hexaen-9-one], 0.01 to 0.1 µM; to `CC1CNC(=O)OCc2cccc(c2)-c2n[nH]c3ccc(cc23)OC1` (stereo not drawn) [Example 86, 12-methyl-8,14-dioxa-10,19,20-triazatetracyclo[13.5.2.1^2,6.0^18,21]tricosa-1(20),2(23),3,5,15(22),16,18(21)-heptaen-9-one], less than 0.01 µM.
For the compound `CCC1CCOc2ccc3[nH]nc(c3c2)-c2cccc(c2)COC(=O)N1` (stereo not drawn) [Example 87, 11-ethyl-8,14-dioxa-10,19,20-triazatetracyclo[13.5.2.1^2,6.0^18,21]tricosa-1(20),2(23),3,5,15(22),16,18(21)-heptaen-9-one], the IC50 was less than 0.01 µM.
Then `Cc1c(F)cc2cc1C(C)OC(=O)NCCCOc1ccc3[nH]nc-2c3c1` (stereo not drawn) [Example 88, 4-fluoro-5,7-dimethyl-8,14-dioxa-10,19,20-triazatetracyclo[13.5.2.1^2,6.0^18,21]tricosa-1(20),2(23),3,5,15(22),16,18(21)-heptaen-9-one], with 0.01 to 0.1 µM; and `COc1c(F)cc2cc1C(C)OC(=O)NCCCOc1ccc3[nH]nc-2c3c1` (stereo not drawn) [Example 89, 4-fluoro-5-methoxy-7-methyl-8,14-dioxa-10,19,20-triazatetracyclo[13.5.2.1^2,6.0^18,21]tricosa-1(20),2(23),3,5,15(22),16,18(21)-heptaen-9-one], with 0.1 to 1 µM; and `Cc1cc2cc(c1F)C(C)OC(=O)NCCCOc1ccc3[nH]nc-2c3c1` (stereo not drawn) [Example 90, 5-fluoro-4,7-dimethyl-8,14-dioxa-10,19,20-triazatetracyclo[13.5.2.1^2,6.0^18,21]tricosa-1(20),2(23),3,5,15(22),16,18(21)-heptaen-9-one], with less than 0.01 µM.
Then `O=C1OC2CN1CCCOc1ccc3[nH]nc(c3c1)-c1cccc2c1` (stereo not drawn) [Example 91, 8,14-dioxa-10,19,20-triazapentacyclo[13.5.2.1^2,6.1^7,10.0^18,21]tetracosa-1(20),2(24),3,5,15(22),16,18(21)-heptaen-9-one], with less than 0.01 µM.
Then `CC1CCNC(=O)OCc2cccc(n2)-c2n[nH]c3ccc(cc23)O1` (stereo not drawn) [Example 92, 13-methyl-8,14-dioxa-10,19,20,23-tetraazatetracyclo[13.5.2.1^2,6.0^18,21]tricosa-1(20),2(23),3,5,15(22),16,18(21)-heptaen-9-one], with less than 0.01 µM; and `CC1CNC(=O)OCCn2cc(cn2)-c2n[nH]c3ccc(cc23)OC1` (stereo not drawn) [Example 93, 12-methyl-8,14-dioxa-4,5,10,19,20-pentaazatetracyclo[13.5.2.1^2,5.0^18,21]tricosa-1(20),2(23),3,15(22),16,18(21)-hexaen-9-one], with less than 0.01 µM; and `CC1Cn2cc(cn2)-c2n[nH]c3ccc(cc23)OCCCNC(=O)O1` (stereo not drawn) [Example 94, 7-methyl-8,14-dioxa-4,5,10,19,20-pentaazatetracyclo[13.5.2.1^2,5.0^18,21]tricosa-1(20),2(23),3,15(22),16,18(21)-hexaen-9-one], with less than 0.01 µM.
For the compound `COc1cc2cc(c1F)C(C)OC(=O)NCCCOc1ccc3[nH]nc-2c3c1` (stereo not drawn) [Example 95, 5-fluoro-4-methoxy-7-methyl-8,14-dioxa-10,19,20-triazatetracyclo[13.5.2.1^2,6.0^18,21]tricosa-1(20),2(23),3,5,15(22),16,18(21)-heptaen-9-one], the IC50 is less than 0.01 µM.
Turning to `C[C@@H]1CCNC(=O)O[C@H](C)c2cccc(c2)-c2n[nH]c3ccc(cc23)O1` [Example 96, (7R,13R)-7,13-dimethyl-8,14-dioxa-10,19,20-triazatetracyclo[13.5.2.1^2,6.0^18,21]tricosa-1(20),2(23),3,5,15(22),16,18(21)-heptaen-9-one], the IC50 was less than 0.01 µM.
For `C[C@@H]1CCNC(=O)OCCn2cc(cn2)-c2n[nH]c3ccc(cc23)O1` [Example 97, (13R)-13-methyl-8,14-dioxa-4,5,10,19,20-pentaazatetracyclo[13.5.2.1^2,5.0^18,21]tricosa-1(20),2(23),3,15,17,21-hexaen-9-one], the IC50 was less than 0.01 µM.
Then `O=C1OCc2cncc(c2)-c2n[nH]c3ccc(cc23)OCC2CCN1C2` (stereo not drawn) [Example 98, 8,15-dioxa-4,10,20,21-tetraazapentacyclo[14.5.2.1^2,6.1^10,13.0^19,22]pentacosa-1(21),2(25),3,5,16(23),17,19(22)-heptaen-9-one], with less than 0.01 µM; and `O=C1NCCCOc2ccc3[nH]nc(c3c2)-c2ccn(c2)CCO1` [Example 99, 8,14-dioxa-5,10,19,20-tetraazatetracyclo[13.5.2.1^2,5.0^18,21]tricosa-1(20),2(23),3,15(22),16,18(21)-hexaen-9-one], with less than 0.01 µM; and `C[C@@H]1CCNC(=O)OCc2cncc(c2)-c2n[nH]c3ccc(cc23)O1` [Example 102, (13R)-13-methyl-8,14-dioxa-4,10,19,20-tetraazatetracyclo[13.5.2.1^2,6.0^18,21]tricosa-1(20),2(23),3,5,15(22),16,18(21)-heptaen-9-one], with less than 0.01 µM.
Then `O=C1NCCCOc2ccc3[nH]nc(c3c2)-c2cnn(c2)C(C2CC2)CO1` (stereo not drawn) [Example 103, 6-cyclopropyl-8,14-dioxa-4,5,10,19,20-pentaazatetracyclo[13.5.2.1^2,5.0^18,21]tricosa-1(20),2(23),3,15(22),16,18(21)-hexaen-9-one], with less than 0.01 µM.
To `CCC1OC(=O)NCCCOc2ccc3[nH]nc(c3c2)-c2cccc1c2` (stereo not drawn) [Example 104, 7-ethyl-8,14-dioxa-10,19,20-triazatetracyclo[13.5.2.1^2,6.0^18,21]tricosa-1(20),2,4,6(23),15,17,21-heptaen-9-one] belongs 0.01 to 0.1 µM.
Consider `C[C@@H]1CCNC(=O)OCc2nccc(n2)-c2n[nH]c3ccc(cc23)O1` [Example 105, (13R)-13-methyl-8,14-dioxa-5,10,19,20,23-pentaazatetracyclo[13.5.2.1^2,6.0^18,21]tricosa-1(20),2,4,6(23),15,17,21-heptaen-9-one], for which the IC50 is less than 0.01 µM.
As for `C[C@@H]1CCNC(=O)O[C@H](C)c2cc(F)cc(c2)-c2n[nH]c3ccc(cc23)O1` [Example 106, (7R,13R)-4-fluoro-7,13-dimethyl-8,14-dioxa-10,19,20-triazatetracyclo[13.5.2.1^2,6.0^18,21]tricosa-1(20),2,4,6(23),15,17,21-heptaen-9-one], the IC50 is less than 0.01 µM.

The values are drawn from patent US20230357269A1 (LES LABORATOIRES SERVIER, priority 2020, published 2023).
